Results from patent US12723063B2, “GIPR-agonist compounds” (Eli Lilly and Company, priority 2019, dated 2026).
*1 amine or outer side, *2 acyl side, *3 side chain or, on linkers, in order; H or OH if unused. Where a SMILES comes first, the peptide text is derived from it. Side-chain parts run from the residue outwards. [ ]: non-standard residue; d: D form. The star is where a group is joined. C20 diacid = O=C(O)CCCCCCCCCCCCCCCCCCC(=O)*; γGlu = O=C(O)[C@H](CCC(=O)[*:2])N[*:1]; 4Pal = N[C@@H](Cc1ccncc1)C(=O)O; αMeL = CC(C)C[C@](C)(N)C(=O)O; Iva = CC[C@](C)(N)C(=O)O; Orn = NCCC[C@H](N)C(=O)O; AEEA = NCCOCCOCC(=O)O; Aib = CC(C)(N)C(=O)O

Key:
Assay in all cases: cAMP functional assay (HTRF) in HEK293 cells in presence of 0.1% casein
Assay type in all cases: cell-based
[1] = biological target: T1, human glucagon receptor (GcgR) (Homo sapiens, UniProt P47871); conditions: HEK293 cells expressing human GcgR, geometric mean, read-out: hGcgR cAMP Rel EC50 nM (SEM, n)
T1 construct: expressed in transfected cells; host or cells: HEK293
T1 sequence (P47871 26-477): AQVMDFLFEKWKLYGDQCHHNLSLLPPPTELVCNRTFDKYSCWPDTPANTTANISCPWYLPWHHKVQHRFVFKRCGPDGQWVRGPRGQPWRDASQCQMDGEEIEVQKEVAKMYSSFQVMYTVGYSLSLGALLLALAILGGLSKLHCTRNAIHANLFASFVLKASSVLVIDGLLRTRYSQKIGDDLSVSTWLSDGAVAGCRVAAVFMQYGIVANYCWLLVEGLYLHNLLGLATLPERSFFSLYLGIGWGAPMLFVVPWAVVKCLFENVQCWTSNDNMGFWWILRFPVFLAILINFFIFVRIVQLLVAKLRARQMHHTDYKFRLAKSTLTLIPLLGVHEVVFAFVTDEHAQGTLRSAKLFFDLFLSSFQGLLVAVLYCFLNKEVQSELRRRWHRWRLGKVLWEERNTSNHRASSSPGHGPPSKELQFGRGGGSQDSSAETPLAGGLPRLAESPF

[2] = biological target: T2, human glucose-dependent insulinotropic peptide receptor (GIPR) (Homo sapiens, UniProt P48546); conditions: HEK293 cells expressing human GIPR, geometric mean, read-out: hGIPR cAMP Rel EC50 nM (SEM, n)
T2 construct: expressed in transfected cells; host or cells: HEK293
T2 sequence (P48546 22-466): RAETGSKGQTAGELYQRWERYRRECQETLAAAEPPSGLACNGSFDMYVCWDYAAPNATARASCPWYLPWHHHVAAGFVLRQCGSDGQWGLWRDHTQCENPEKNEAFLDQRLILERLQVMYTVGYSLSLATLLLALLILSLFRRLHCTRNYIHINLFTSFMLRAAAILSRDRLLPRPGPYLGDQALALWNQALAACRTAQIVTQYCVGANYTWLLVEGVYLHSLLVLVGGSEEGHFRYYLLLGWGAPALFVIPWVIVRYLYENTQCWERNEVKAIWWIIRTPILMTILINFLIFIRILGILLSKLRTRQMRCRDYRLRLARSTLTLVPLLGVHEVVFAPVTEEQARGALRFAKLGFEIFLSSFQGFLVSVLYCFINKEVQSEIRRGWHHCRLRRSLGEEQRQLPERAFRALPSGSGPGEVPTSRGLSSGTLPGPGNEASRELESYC

[3] = biological target: T3, human GLP-1 receptor (GLP-1R) (Homo sapiens, UniProt P43220); conditions: HEK293 cells expressing human GLP-1R, geometric mean, read-out: hGLP1R cAMP Rel EC50 nM (SEM, n)
T3 construct: expressed in transfected cells; host or cells: HEK293
T3 sequence (P43220 24-463): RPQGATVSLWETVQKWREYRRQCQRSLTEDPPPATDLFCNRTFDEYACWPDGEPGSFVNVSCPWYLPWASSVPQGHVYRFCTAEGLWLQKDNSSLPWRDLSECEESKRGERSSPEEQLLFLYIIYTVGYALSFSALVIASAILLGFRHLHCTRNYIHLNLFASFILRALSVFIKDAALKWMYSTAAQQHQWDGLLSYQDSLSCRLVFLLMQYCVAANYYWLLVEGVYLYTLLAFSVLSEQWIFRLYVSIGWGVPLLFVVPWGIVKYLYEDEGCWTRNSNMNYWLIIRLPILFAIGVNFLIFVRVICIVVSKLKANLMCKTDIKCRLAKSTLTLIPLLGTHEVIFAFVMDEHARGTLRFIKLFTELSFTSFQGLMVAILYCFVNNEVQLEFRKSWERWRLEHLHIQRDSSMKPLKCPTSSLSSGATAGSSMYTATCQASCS

Structure (SMILES) | EC50 [1] | EC50 [2] | EC50 [3]
CC[C@H](C)[C@H](NC(=O)[C@H](CCCN)NC(=O)[C@H](CC(=O)O)NC(=O)[C@H](CC(C)C)NC(=O)[C@](C)(CC(C)C)NC(=O)[C@@H](NC(=O)[C@H](CO)NC(=O)[C@H](Cc1ccc(O)cc1)NC(=O)[C@H](CC(=O)O)NC(=O)[C@H](CO)NC(=O)[C@@H](NC(=O)[C@H](Cc1ccccc1)NC(=O)[C@@H](NC(=O)CNC(=O)[C@H](CCC(=O)O)NC(=O)C(C)(C)NC(=O)[C@@H](N)Cc1ccc(O)cc1)[C@@H](C)O)[C@@H](C)CC)[C@@H](C)CC)C(=O)N[C@@H](Cc1c[nH]cn1)C(=O)N[C@@H](CCC(N)=O)C(=O)NC(C)(C)C(=O)N[C@@H](CCC(=O)O)C(=O)N[C@@H](Cc1ccccc1)C(=O)N[C@H](C(=O)N[C@H](CCC(=O)O)C(=O)N[C@@H](Cc1ccc(O)cc1)C(=O)N[C@@H](CCCCNC(=O)COCCOCCNC(=O)COCCOCCNC(=O)CC[C@H](NC(=O)CCCCCCCCCCCCCCCCC(=O)O)C(=O)O)C(=O)N[C@@H](CC(C)C)C(=O)N[C@@H](CCC(=O)O)C(=O)NCC(=O)NCC(=O)N1CCC[C@H]1C(=O)N[C@@H](CO)C(=O)N[C@@H](CO)C(=O)NCC(=O)N[C@@H](C)C(=O)N1CCC[C@H]1C(=O)N1CCC[C@H]1C(=O)N1CCC[C@H]1C(=O)N[C@@H](CO)C(N)=O)C(C)C [Example 7] | > 5000 nM | 0.0219 nM | > 5000 nM
CC[C@H](C)[C@H](NC(=O)[C@H](Cc1ccccc1)NC(=O)[C@@H](NC(=O)CNC(=O)[C@H](CCC(=O)O)NC(=O)C(C)(C)NC(=O)[C@@H](N)Cc1ccc(O)cc1)[C@@H](C)O)C(=O)N[C@@H](CO)C(=O)N[C@@H](CC(=O)O)C(=O)N[C@@H](Cc1ccc(O)cc1)C(=O)N[C@@H](CO)C(=O)N[C@H](C(=O)N[C@@](C)(CC(C)C)C(=O)N[C@@H](CC(C)C)C(=O)N[C@@H](CC(=O)O)C(=O)N[C@@H](CCC(=O)O)C(=O)N[C@@H](CCCCNC(=O)COCCOCCNC(=O)COCCOCCNC(=O)CC[C@H](NC(=O)CCCCCCCCCCCCCCCCCCC(=O)O)C(=O)O)C(=O)N[C@@H](Cc1c[nH]cn1)C(=O)N[C@@H](CCC(N)=O)C(=O)NC(C)(C)C(=O)N[C@@H](CC(=O)O)C(=O)N[C@@H](Cc1ccccc1)C(=O)N[C@H](C(=O)N[C@@H](CCC(=O)O)C(=O)N[C@@H](Cc1ccncc1)C(=O)N[C@@H](CC(C)C)C(=O)N[C@@H](CC(C)C)C(=O)N[C@@H](C)C(=O)NCC(=O)NCC(=O)N1CCC[C@H]1C(=O)N[C@@H](CO)C(=O)N[C@@H](CO)C(=O)NCC(=O)N[C@@H](C)C(=O)N1CCC[C@H]1C(=O)N1CCC[C@H]1C(=O)N1CCC[C@H]1C(=O)N[C@@H](CO)C(N)=O)C(C)C)[C@@H](C)CC [Example 86] | > 5000 nM | 0.03 nM | > 5000 nM
CC[C@H](C)[C@H](NC(=O)[C@H](CCCN)NC(=O)[C@H](CC(=O)O)NC(=O)[C@H](CC(C)C)NC(=O)[C@](C)(CC(C)C)NC(=O)[C@@H](NC(=O)[C@H](CO)NC(=O)[C@H](Cc1ccc(O)cc1)NC(=O)[C@H](CC(=O)O)NC(=O)[C@H](CO)NC(=O)[C@@H](NC(=O)[C@H](Cc1ccccc1)NC(=O)[C@@H](NC(=O)CNC(=O)[C@H](CCC(=O)O)NC(=O)C(C)(C)NC(=O)[C@@H](N)Cc1ccc(O)cc1)[C@@H](C)O)[C@@H](C)CC)[C@@H](C)CC)C(=O)N[C@@H](Cc1c[nH]cn1)C(=O)N[C@@H](CCC(N)=O)C(=O)NC(C)(C)C(=O)N[C@@H](CCC(=O)O)C(=O)N[C@@H](Cc1ccccc1)C(=O)N[C@H](C(=O)N[C@H](CCC(=O)O)C(=O)N[C@@H](Cc1ccc(O)cc1)C(=O)N[C@@H](CCCCNC(=O)COCCOCCNC(=O)COCCOCCNC(=O)CC[C@H](NC(=O)CCCCCCCCCCCCCCCCCCC(=O)O)C(=O)O)C(=O)N[C@@H](CC(C)C)C(=O)N[C@@H](CCC(=O)O)C(=O)NCC(=O)NCC(=O)N1CCC[C@H]1C(=O)N[C@@H](CO)C(=O)N[C@@H](CO)C(=O)NCC(=O)N[C@@H](C)C(=O)N1CCC[C@H]1C(=O)N1CCC[C@H]1C(=O)N1CCC[C@H]1C(=O)N[C@@H](CO)C(N)=O)C(C)C [Example 102] (H-Y[Aib]EGTFISDYSI[αMeL]LD[Orn]IHQ[Aib]EFV[dE]YK([AEEA-AEEA-γGlu-C20 diacid])LEGGPSSGAPPPS-NH2) | > 5000 nM | 0.0166 nM | > 5000 nM
CC[C@H](C)[C@H](NC(=O)[C@H](CO)NC(=O)[C@H](Cc1ccc(O)cc1)NC(=O)[C@H](CC(=O)O)NC(=O)[C@H](CO)NC(=O)[C@@H](NC(=O)[C@](C)(CC)NC(=O)[C@@H](NC(=O)CNC(=O)[C@H](CCC(=O)O)NC(=O)C(C)(C)NC(=O)[C@@H](N)Cc1ccc(O)cc1)[C@@H](C)O)[C@@H](C)CC)C(=O)N[C@@](C)(CC(C)C)C(=O)N[C@@H](CC(C)C)C(=O)N[C@@H](CC(=O)O)C(=O)N[C@@H](CCCCN)C(=O)N[C@@H](CCCCNC(=O)COCCOCCNC(=O)COCCOCCNC(=O)CC[C@H](NC(=O)CCCCCCCCCCCCCCCCCCC(=O)O)C(=O)O)C(=O)N[C@@H](Cc1c[nH]cn1)C(=O)N[C@@H](CCC(N)=O)C(=O)NC(C)(C)C(=O)N[C@@H](CC(=O)O)C(=O)N[C@@H](Cc1ccccc1)C(=O)N[C@H](C(=O)N[C@@H](CCC(=O)O)C(=O)N[C@@H](Cc1ccncc1)C(=O)N[C@@H](CC(C)C)C(=O)N[C@@H](CC(C)C)C(=O)N[C@@H](CCC(=O)O)C(=O)N[C@@H](C)C(=O)NCC(=O)N1CCC[C@H]1C(=O)N[C@@H](CO)C(=O)N[C@@H](CO)C(=O)NCC(=O)N[C@@H](C)C(=O)N1CCC[C@H]1C(=O)N1CCC[C@H]1C(=O)N1CCC[C@H]1C(=O)N[C@@H](CO)C(N)=O)C(C)C [Example 88] (H-Y[Aib]EGT[Iva]ISDYSI[αMeL]LDKK([AEEA-AEEA-γGlu-C20 diacid])HQ[Aib]DFVE[4Pal]LLEAGPSSGAPPPS-NH2) | 1670 nM | 0.0031 nM | > 5000 nM
CC[C@H](C)[C@H](NC(=O)[C@H](Cc1ccccc1)NC(=O)[C@@H](NC(=O)CNC(=O)[C@H](CCC(=O)O)NC(=O)C(C)(C)NC(=O)[C@@H](N)Cc1ccc(O)cc1)[C@@H](C)O)C(=O)N[C@@H](CO)C(=O)N[C@@H](CC(=O)O)C(=O)N[C@@H](Cc1ccc(O)cc1)C(=O)N[C@@H](CO)C(=O)N[C@H](C(=O)N[C@@](C)(CC(C)C)C(=O)N[C@@H](CC(C)C)C(=O)N[C@@H](CC(=O)O)C(=O)N[C@@H](CCCN)C(=O)N[C@@H](CCCCNC(=O)COCCOCCNC(=O)COCCOCCNC(=O)CC[C@H](NC(=O)CCCCCCCCCCCCCCCCCCC(=O)O)C(=O)O)C(=O)N[C@@H](Cc1c[nH]cn1)C(=O)N[C@@H](CCC(N)=O)C(=O)NC(C)(C)C(=O)N[C@@H](CC(=O)O)C(=O)N[C@@H](Cc1ccccc1)C(=O)N[C@H](C(=O)N[C@@H](CCC(=O)O)C(=O)N[C@@H](Cc1ccncc1)C(=O)N[C@@H](CC(C)C)C(=O)N[C@@H](CC(C)C)C(=O)N[C@@H](CCC(=O)O)C(=O)N[C@H](C(=O)NCC(=O)N1CCC[C@H]1C(=O)N[C@@H](CO)C(=O)N[C@@H](CO)C(=O)NCC(=O)N[C@@H](C)C(=O)N1CCC[C@H]1C(=O)N1CCC[C@H]1C(=O)N1CCC[C@H]1C(=O)N[C@@H](CO)C(N)=O)[C@@H](C)O)C(C)C)[C@@H](C)CC [Example 80] (H-Y[Aib]EGTFISDYSI[αMeL]LD[Orn]K([AEEA-AEEA-γGlu-C20 diacid])HQ[Aib]DFVE[4Pal]LLETGPSSGAPPPS-NH2) | > 5000 nM | 0.0777 nM | > 5000 nM
CC[C@H](C)[C@H](NC(=O)[C@H](CCCCN)NC(=O)[C@H](CC(=O)O)NC(=O)[C@H](CC(C)C)NC(=O)[C@](C)(CC(C)C)NC(=O)[C@@H](NC(=O)[C@H](CO)NC(=O)[C@H](Cc1ccc(O)cc1)NC(=O)[C@H](CC(=O)O)NC(=O)[C@H](CO)NC(=O)[C@@H](NC(=O)[C@H](Cc1ccccc1)NC(=O)[C@@H](NC(=O)CNC(=O)[C@H](CCC(=O)O)NC(=O)C(C)(C)NC(=O)[C@@H](N)Cc1ccc(O)cc1)[C@@H](C)O)[C@@H](C)CC)[C@@H](C)CC)C(=O)N[C@@H](Cc1c[nH]cn1)C(=O)N[C@@H](CCC(N)=O)C(=O)NC(C)(C)C(=O)N[C@@H](CC(=O)O)C(=O)N[C@@H](Cc1ccccc1)C(=O)N[C@H](C(=O)N[C@@H](CCC(=O)O)C(=O)N[C@@H](Cc1ccc(O)cc1)C(=O)N[C@@H](CCCCNC(=O)COCCOCCNC(=O)COCCOCCNC(=O)CC[C@H](NC(=O)CCCCCCCCCCCCCCCCCCC(=O)O)C(=O)O)C(=O)N[C@@H](CC(C)C)C(=O)N[C@@H](CCC(=O)O)C(=O)N[C@@H](CCC(N)=O)C(=O)NCC(=O)N1CCC[C@H]1C(=O)N[C@@H](CO)C(=O)N[C@@H](CO)C(=O)NCC(=O)N[C@@H](C)C(=O)N1CCC[C@H]1C(=O)N1CCC[C@H]1C(=O)N1CCC[C@H]1C(=O)N[C@@H](CO)C(N)=O)C(C)C [Example 92] (H-Y[Aib]EGTFISDYSI[αMeL]LDKIHQ[Aib]DFVEYK([AEEA-AEEA-γGlu-C20 diacid])LEQGPSSGAPPPS-NH2) | > 5000 nM | 0.0191 nM | > 5000 nM
